Results published in US9676760B2, “Fused heterocyclic compounds as ion channel modulators” (Gilead Sciences, Inc., priority 2011, dated 2017).

What was measured:
[1] = molecular target: cardiac L-type Ca2+ channel (hCav1.2) (Homo sapiens, UniProt Q13936); test: L-type Ca2+ channel assay - ChanTest (PatchXpress, CHO cells); assay type: cell-based
Excerpt: Selected compounds were screened for block of the cardiac L-type Ca^2+ channel (hCav1.2, encoded by the human CACNA1C gene and coexpressed with the beta 2 subunit, encoded by the human CACNB2 gene and alpha2delta1, encoded by the CACNA2D1 gene). The Ca^2+ channel is heterologously expressed in a CHO (Chinese Hamster Ovary) cell line. Cells are maintained following standard tissue culture procedures and stable channel expression is maintained with appropriate selection antibiotics in the culture medium. Cells are harvested for testing on the PatchXpress automated patch clamp (Model 7000A, Molecular Devices, Sunnyvale, Calif.) by washing twice with Hank's Balanced Salt Solution, treating the cells with trypsin and re-suspending cells in culture medium (4-6×10^6 cells in 20 mL). Cells in suspension are allowed to recover for 10 minutes in a tissue culture incubator set at 37° C. in a humidified 95% air, 5% CO2 atmosphere.
The following solutions are used for electrophysiological recordings. The external solution contains (mM): 137 NaCl, 4 KCl, 1.8 CaCl2, 1 MgCl2, 10 Glucose, 10 HEPES (pH 7.4 with NaOH). The internal solution contains (mM): 130 Cs Aspartate, 5 MgCl2, 10 EGTA, 4 ATP, 0.5 GTP, 10 HEPES, (pH adjusted to 7.2 with N-methyl-D-glucamine).
Vehicle is applied to naive cells (n≧2, where n=the number cells), for a 5-10 minute exposure interval. Each solution exchange is performed in quadruplicate. At the end of each experiment, a saturating concentration of nifedipine (10 μM) is added to block hCav1.2 current. Leak current is digitally subtracted from the total membrane current record.
Test compound stock solutions are prepared by addition of dimethyl sulfoxide (DMSO) and stored frozen. Each test compound DMSO stock is sonicated (Model 2510/5510, Branson Ultrasonics, Danbury, Conn.), at ambient room temperature for at least 20 minutes to facilitate dissolution. Test compound concentrations are prepared fresh daily by diluting stock solutions into the standard extracellular physiological saline solution (see above). The maximum percent of DMSO added with compound is 0.1%. All test compound and control solutions are placed in a glass-lined 96-well compound plate before loading on PatchXpress.
Two concentrations (1, 10 μM) of each test compound are applied at five (5) minute intervals via disposable polyethylene micropipette tips to naïve cells (n≧2, where n=the number cells/concentration). Each test compound concentration is added to the cell in quadruplicate. […]
Onset and steady state block of hCav1.2 (α1C/β2/α2δ[…] channels is measured using a stimulus voltage pattern consisting of a depolarizing test pulse (duration, 200 ms; amplitude, 10 mV) at 10 s intervals from a −80 mV holding potential. Peak current is measured during a step to 10 mV.

[2] = molecular target: hNav 1.8 sodium channel isoform (Homo sapiens, UniProt Q9Y5Y9); test: hNav1.8 sodium channel block; assay type: cell-based
Excerpt: Compounds of this disclosure that block cardiac late INa may also mediate UDB of other Na^+ channel isoforms including the major Na^+ channel isoforms in peripheral nervous system pain fibers, NaV1.7 and 1.8. Compounds of this disclosure that block these channels may also be useful to decrease neuropathic pain.
The inhibition of either hNav 1.7 and hNav 1.8 isoforms or the inhibition of both channels when stimulated at these frequencies support the use of compounds of this disclosure to decrease neuropathic pain.

[3] = system: Female New Zealand rabbits; test: Ischemia-induced ST segment elevation in anesthetized rabbits; assay type: in vivo, rabbit
Experimental: This study was undertaken to determine the anti-ischemic effects of compounds of the present disclosure in an in vivo rabbit model.
Female New Zealand rabbits (3.0-4.0 kg) were purchased from Western Oregon Rabbitry. Animals were housed on a 12-h light and dark cycle and received standard laboratory chow and water. All experiments were performed in accordance with the Guide for the Care and Use of Laboratory Animals published by The National Research Council and with the experimental protocol approved by the Institutional Animal Care Committee of Gilead Sciences, Inc.
Rabbits were anesthetized with ketamine (35 mg/kg) and xylazine (5 mg/kg) intramuscular injection (im). A tracheotomy was performed and the trachea was intubated with an endotracheal tube. The animal was ventilated with room air supplemented with oxygen using a pressure control animal ventilator (Kent Scientific Corp., Torrington, Conn.) at a respiratory rate of 40 strokes/min and peak inspiration pressure of 10 mmH2O, which was adjusted to keep blood gases and pH within the physiological range (iSTAT clinic analyzer, Heska Corp.; Waukesha, Wis.). The left femoral artery was cannulated for the measurement of blood pressure (BP). Blood samples were also withdrawn from femoral artery. The right external jugular vein was cannulated for drug/vehicle administration. Needle electrodes were inserted subcutaneously into the limbs for recording of the surface electrocardiogram (ECG). The heart was exposed via an incision in the 4th intercostal space (4th and/or 5th ribs were cut for a clear surgical vision). The chest was opened and a pericardial cradle was formed using 4 retractors. A coronary artery occluder, comprised of a snare made of 5 cm PE-10 tubing with a 6-0 Prolene polypropylene suture in it, was placed loosely around the left anterior descending artery (LAD) at its origin. Two unipolar electrodes, made with teflon coated silver wire attached to a small patch of filter paper, were attached on the surface of the ischemic and normal regions of the left ventricle to record epicardial electrocardiogram. Reference electrodes were placed in the open incision of the neck. The body temperature of the animal was monitored via a rectal thermometer and maintained at 37-40° C. by adjusting the surface temperature of the surgical table. Regional ischemia (15 min) was induced by ligating the LAD followed by 15 min of reperfusion caused by releasing the ligation. The heart was excised at the end of the experiment and the LAD was re-ligated. The ischemic area was visualized by perfusing the heart with 1% Evans blue in saline and calculated as a percentage of total ventricular weight. Rabbits with ischemic area less than 10% or larger than 25% were excluded from the analysis. Animals were randomly assigned to vehicle and test compound groups. Test compounds was dissolved in 5% NMP, 30% PG, 45% PEG 400 and 20% de-ionized water (dH2O). Test compound was given as an iv bolus at 0.1, 0.2 and 0.4 mg/kg. After 30 min of dosing, the heart was subjected to 15 min of ischemia followed by 15 min of reperfusion.

Chain of cardiac L-type Ca2+ channel (hCav1.2) (Q13936 whole entry): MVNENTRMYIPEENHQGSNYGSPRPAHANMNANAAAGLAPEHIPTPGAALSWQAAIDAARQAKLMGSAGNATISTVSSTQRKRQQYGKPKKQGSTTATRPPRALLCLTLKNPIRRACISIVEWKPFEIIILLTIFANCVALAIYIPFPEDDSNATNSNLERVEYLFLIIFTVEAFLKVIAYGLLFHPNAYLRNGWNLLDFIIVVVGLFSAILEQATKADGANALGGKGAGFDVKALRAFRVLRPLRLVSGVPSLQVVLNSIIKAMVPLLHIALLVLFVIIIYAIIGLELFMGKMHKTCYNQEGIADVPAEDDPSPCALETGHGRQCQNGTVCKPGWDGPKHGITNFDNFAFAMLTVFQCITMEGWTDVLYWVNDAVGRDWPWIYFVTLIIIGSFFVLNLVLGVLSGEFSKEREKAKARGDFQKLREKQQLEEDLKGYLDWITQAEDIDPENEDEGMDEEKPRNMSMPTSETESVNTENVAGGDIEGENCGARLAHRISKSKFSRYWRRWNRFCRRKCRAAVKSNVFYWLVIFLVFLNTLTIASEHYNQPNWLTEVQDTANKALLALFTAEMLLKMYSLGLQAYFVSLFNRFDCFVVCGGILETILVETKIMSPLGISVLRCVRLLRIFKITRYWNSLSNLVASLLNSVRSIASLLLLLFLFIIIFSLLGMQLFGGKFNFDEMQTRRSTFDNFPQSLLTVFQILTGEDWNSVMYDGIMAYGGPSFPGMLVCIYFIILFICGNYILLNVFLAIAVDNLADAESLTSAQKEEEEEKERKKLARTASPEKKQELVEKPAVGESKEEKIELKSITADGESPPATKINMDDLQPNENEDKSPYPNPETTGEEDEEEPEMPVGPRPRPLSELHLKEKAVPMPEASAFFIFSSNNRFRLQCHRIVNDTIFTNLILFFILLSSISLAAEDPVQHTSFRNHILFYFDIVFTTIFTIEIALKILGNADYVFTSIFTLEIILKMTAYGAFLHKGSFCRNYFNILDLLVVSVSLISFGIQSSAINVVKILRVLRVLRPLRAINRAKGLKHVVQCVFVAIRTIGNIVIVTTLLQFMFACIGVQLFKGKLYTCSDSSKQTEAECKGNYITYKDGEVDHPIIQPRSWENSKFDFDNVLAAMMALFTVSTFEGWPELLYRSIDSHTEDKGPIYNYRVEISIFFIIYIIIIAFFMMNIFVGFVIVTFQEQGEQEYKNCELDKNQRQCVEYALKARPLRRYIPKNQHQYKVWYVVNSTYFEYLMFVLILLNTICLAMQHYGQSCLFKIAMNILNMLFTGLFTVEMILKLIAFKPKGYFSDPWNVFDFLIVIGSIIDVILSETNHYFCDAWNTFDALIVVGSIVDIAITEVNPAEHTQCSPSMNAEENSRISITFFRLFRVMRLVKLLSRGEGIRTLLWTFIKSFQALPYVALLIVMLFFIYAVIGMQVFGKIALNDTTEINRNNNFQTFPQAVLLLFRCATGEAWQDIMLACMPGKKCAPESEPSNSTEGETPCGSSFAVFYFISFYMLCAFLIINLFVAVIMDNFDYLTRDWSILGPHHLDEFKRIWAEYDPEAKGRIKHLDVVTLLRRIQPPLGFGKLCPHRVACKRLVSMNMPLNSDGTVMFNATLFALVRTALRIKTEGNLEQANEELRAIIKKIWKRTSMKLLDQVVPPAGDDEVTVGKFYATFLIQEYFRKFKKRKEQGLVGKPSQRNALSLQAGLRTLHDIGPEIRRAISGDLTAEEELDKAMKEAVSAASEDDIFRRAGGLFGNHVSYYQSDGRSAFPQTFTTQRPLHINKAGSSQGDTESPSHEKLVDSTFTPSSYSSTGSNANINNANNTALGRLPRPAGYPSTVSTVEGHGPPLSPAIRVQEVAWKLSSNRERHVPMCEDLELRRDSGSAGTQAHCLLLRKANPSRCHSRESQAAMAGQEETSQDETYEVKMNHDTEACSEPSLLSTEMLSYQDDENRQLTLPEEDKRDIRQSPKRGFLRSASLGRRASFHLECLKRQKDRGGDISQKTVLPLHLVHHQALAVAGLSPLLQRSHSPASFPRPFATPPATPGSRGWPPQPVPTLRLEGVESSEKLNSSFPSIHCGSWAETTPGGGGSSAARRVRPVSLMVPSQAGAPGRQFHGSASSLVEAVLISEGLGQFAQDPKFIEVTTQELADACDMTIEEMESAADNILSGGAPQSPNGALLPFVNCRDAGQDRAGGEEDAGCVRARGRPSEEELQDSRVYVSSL
Chain of cardiac L-type Ca2+ channel (hCav1.2) (Q08289 whole entry partner): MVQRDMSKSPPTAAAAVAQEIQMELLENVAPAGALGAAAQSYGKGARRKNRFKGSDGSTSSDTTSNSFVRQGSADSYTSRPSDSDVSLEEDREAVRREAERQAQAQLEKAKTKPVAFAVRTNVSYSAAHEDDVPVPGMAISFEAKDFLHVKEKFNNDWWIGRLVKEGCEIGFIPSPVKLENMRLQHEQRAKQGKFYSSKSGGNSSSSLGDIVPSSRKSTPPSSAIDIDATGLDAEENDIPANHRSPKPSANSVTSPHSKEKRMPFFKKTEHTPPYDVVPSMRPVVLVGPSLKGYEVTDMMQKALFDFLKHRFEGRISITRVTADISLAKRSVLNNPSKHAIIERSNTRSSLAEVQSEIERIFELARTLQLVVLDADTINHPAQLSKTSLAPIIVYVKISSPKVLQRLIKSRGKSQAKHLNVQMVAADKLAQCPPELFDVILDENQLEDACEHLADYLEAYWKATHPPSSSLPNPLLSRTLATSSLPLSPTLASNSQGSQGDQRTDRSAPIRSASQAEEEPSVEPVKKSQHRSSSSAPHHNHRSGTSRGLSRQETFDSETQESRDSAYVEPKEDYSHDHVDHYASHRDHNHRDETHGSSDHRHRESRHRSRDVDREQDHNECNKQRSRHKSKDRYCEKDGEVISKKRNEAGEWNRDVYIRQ
Chain of cardiac L-type Ca2+ channel (hCav1.2) (P54289 25-956 partner limits assumed): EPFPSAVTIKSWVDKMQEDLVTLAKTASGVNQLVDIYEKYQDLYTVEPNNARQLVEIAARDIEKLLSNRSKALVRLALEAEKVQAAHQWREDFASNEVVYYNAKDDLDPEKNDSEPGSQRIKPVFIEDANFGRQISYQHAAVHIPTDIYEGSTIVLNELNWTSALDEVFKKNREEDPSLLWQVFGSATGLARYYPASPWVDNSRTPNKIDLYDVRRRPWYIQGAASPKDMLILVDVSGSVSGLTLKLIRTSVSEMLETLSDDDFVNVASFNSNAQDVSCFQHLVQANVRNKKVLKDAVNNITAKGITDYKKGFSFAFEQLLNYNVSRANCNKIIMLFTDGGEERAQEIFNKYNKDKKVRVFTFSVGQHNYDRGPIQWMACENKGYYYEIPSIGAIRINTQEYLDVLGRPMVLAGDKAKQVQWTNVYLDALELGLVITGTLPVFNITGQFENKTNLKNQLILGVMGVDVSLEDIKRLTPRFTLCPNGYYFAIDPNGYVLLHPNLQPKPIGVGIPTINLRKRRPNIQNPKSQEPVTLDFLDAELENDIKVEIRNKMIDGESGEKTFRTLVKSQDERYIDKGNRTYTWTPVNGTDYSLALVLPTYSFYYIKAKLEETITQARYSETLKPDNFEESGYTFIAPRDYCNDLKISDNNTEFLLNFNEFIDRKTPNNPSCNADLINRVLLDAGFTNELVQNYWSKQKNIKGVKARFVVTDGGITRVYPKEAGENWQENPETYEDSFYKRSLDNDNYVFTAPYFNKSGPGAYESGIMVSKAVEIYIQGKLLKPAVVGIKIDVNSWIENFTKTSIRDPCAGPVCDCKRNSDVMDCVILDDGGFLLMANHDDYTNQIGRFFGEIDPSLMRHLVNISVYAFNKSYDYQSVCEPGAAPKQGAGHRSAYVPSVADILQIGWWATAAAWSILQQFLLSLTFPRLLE
Chain of cardiac L-type Ca2+ channel (hCav1.2) (P54289 957-1103 partner limits assumed): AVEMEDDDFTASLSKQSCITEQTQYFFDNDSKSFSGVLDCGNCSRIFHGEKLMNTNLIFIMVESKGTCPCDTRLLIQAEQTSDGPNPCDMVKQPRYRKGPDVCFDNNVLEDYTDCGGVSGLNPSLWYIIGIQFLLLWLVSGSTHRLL

SMILES: O=C1c2cc(-c3ccc(OC(F)(F)F)cc3)ccc2OCCN1Cc1ncccn1 [II-73, 4-(pyrimidin-2-ylmethyl)-7-(4-(trifluoromethoxy)phenyl)-3,4-dihydrobenzo[f][1,4]oxazepin-5(2H)-one]
- blocked the hCav1.2 late current ([1]; 1 μM concentration): 14%
- blocked the hCav1.2 peak current ([1]; 1 μM concentration): 32%
- blocked the hCav1.2 late current ([1]; 10 μM concentration): 47%
- blocked the hCav1.2 peak current ([1]; 10 μM concentration): 79%
- IC50 ([2]; 10 Hz frequency): > 10000 nM
- IC50 ([2]; frequency of 25 Hz): 1500 nM
- area under curve (AUC) for the ST segment height reduced (vs. control) ([3]; 0.5 μM plasma concentration, iv bolus, 15 min ischemia): 93%
- effect on blood pressure (BP), heart rate (HR) and ECG intervals prior to the ischemia ([3]; at the plasma concentration levels studied): no significant effect
- ischemia-induced ST elevation ([3]; iv bolus 30 min before 15 min ischemia): dose-dependently prevented
